Measurements from patent US20250144056A1, “ANTIMICROBIAL HOST DEFENSE PEPTIDE-INDUCING COMPOSITIONS AND METHODS OF PRODUCTION AND USE THEREOF” (Board of Regents for the Oklahoma Agricultural and …, priority 2022, published 2025).

Experiments:
Format in all cases: cell-based, chicken
AvBD9 mRNA expression = assay: RT-qPCR of AvBD9 mRNA expression in HTC macrophage cells
Protocol: Culture and stimulation of macrophages. Two different chicken macrophage cell lines, HTC (24) and HD11 (25), were kindly provided by Dr. Narayan C. Rath and Dr. Hyun Lillehoj of USDA-ARS and maintained in RPMI 1640 containing 10% heat-inactivated FBS, 100 U/ml penicillin, and 100 μg/ml streptomycin and subcultured every 3-4 days. After overnight seeding at 1.5×10^6 cells/well in 6-well cell culture plates, cells were treated with different concentrations of each compound for 24 h or with the indicated concentration of each compound for various lengths of time for dose-response and time-course experiments, respectively. To study the synergy between HMTi/DNMTi and HDACi, different concentrations of an HMTi or DNMTi were added to the cells in the presence or absence of an HDACi for 24 h, followed by RNA isolation and HDP gene expression analysis as described below. HTC cells were also stimulated with butyrate, BIX01294, or their combination for 24 h, followed by 3-h stimulation with 10 ng/ml LPS and subsequent expression analysis.
Total RNA extraction and gene expression analysis. Total RNA was extracted using RNAzol (Molecular Biology Research Center, Cincinnati, OH) according to the manufacturer's protocol. Gene expression was performed using reverse transcription-quantitative PCR (RT-qPCR) as previously described (27-29). Reverse transcription was performed with 300 ng of total RNA and Maxima® First Strand cDNA Synthesis Kit (ThermoFisher Scientific, Pittsburgh, PA). The cDNA was then diluted 10-fold with RNase-free water prior to real-time PCR using QuantiTect SYBR® Green PCR Kit (Qiagen, Valencia, CA) in 10-μl reactions using primers specific for HDP, barrier function, and inflammatory cytokine genes as described (27, 29, 30). PCR was run in CFX Connect Real-Time PCR System (Bio-Rad, Hercules, CA) using the following program: 95° C. for 10 min, followed by 40 cycles of 94° C. for 15 sec, 55° C. for 20 sec, and 72° C. for 30 sec. The specificity of PCR reactions was confirmed by the melting curve analysis. The glyceraldehyde-3-phosphate dehydrogenase (GAPDH) gene was used as the reference for data normalization. The fold changes in gene expression in the cells treated with individual compounds or in combinations were calculated relative to the cells treated with an equal volume of RPMI 1640 or DMSO using the ΔΔCt method (31).

AvBD10 = assay: RT-qPCR of AvBD10 in HD11 macrophages; settings: HD11 cells, 5 μM compound with 2 mM butyrate, 24 h (FIG. 6, Panel D)
Protocol: (§1) Culture and stimulation of macrophages. Two different chicken macrophage cell lines, HTC (24) and HD11 (25), were kindly provided by Dr. Narayan C. Rath and Dr. Hyun Lillehoj of USDA-ARS and maintained in RPMI 1640 containing 10% heat-inactivated FBS, 100 U/ml penicillin, and 100 μg/ml streptomycin and subcultured every 3-4 days. After overnight seeding at 1.5×10^6 cells/well in 6-well cell culture plates, cells were treated with different concentrations of each compound for 24 h or with the indicated concentration of each compound for various lengths of time for dose-response and time-course experiments, respectively. […]
(§2) Total RNA extraction and gene expression analysis. […] Gene expression was performed using reverse transcription-quantitative PCR (RT-qPCR) as previously described (27-29). […] The cDNA was then diluted 10-fold with RNase-free water prior to real-time PCR using QuantiTect SYBR® Green PCR Kit (Qiagen, Valencia, CA) in 10-μl reactions using primers specific for HDP, barrier function, and inflammatory cytokine genes as described (27, 29, 30). […] The fold changes in gene expression in the cells treated with individual compounds or in combinations were calculated relative to the cells treated with an equal volume of RPMI 1640 or DMSO using the ΔΔCt method (31).

AvBD9 = assay: RT-qPCR of AvBD9 in HD11 macrophages; settings: HD11 cells, 5 μM compound with 2 mM butyrate, 24 h (FIG. 6, Panel A)
Protocol: as §1, §2

Question: How did the “impact of LPS on the AvBD9-inducing synergy with butyrate” value (AvBD9 mRNA expression; 5 μM BIX01294 + 2 mM butyrate 24 h, then 10 ng/ml LPS 3 h (FIG. 8, Panel C)) turn out when `COc1cc2nc(N3CCCN(C)CC3)nc(NC3CCN(Cc4ccccc4)CC3)c2cc1OC` [BIX01294] was run?
Answer: no impact

Question: What about the “additional increase in AvBD9 gene expression over BIX01294 alone, combination with mocetinostat” value (AvBD9 mRNA expression; 5 μM BIX01294 in combination with 2.5 μM mocetinostat, 24 h (FIG. 7, Panel A)) of the same molecule?
Answer: 23 fold

Question: And the “additional increase in AvBD9 gene expression over BIX01294 alone, combination with butyrate” value (AvBD9 mRNA expression; 5 μM BIX01294 in combination with 2 mM butyrate, 24 h (FIG. 7, Panel A))?
Answer: 26 fold

Question: What about the “additional increase in AvBD9 gene expression over BIX01294 alone, combination with vorinostat” value (AvBD9 mRNA expression; 5 μM BIX01294 in combination with vorinostat (SAHA), 24 h (FIG. 7, Panel A)) of the same molecule?
Answer: 69 fold

Question: What about the “additional increase in AvBD9 expression of the butyrate combination over compound alone” value (AvBD9 mRNA expression; 20 μM compound + 2 mM butyrate versus 20 μM compound alone) of the same molecule?
Answer: 54 fold

Question: And the “increase in AvBD9 mRNA expression” value (AvBD9 mRNA expression; 20 μM compound alone, 24 h (FIG. 2, Panel B), peak)?
Answer: 175 fold

Question: What about the “induction of AvBD9 expression” value (AvBD9 mRNA expression; 20 μM compound alone, 24 h (FIG. 4, Panels A, B)) of the same molecule?
Answer: 207 fold

Question: What about the “increase in AvBD9 expression, combination with butyrate” value (AvBD9 mRNA expression; 20 μM compound in combination with 2 mM butyrate, 24 h (FIG. 4, Panels A, B)) of the same molecule?
Answer: 11,165 fold

Question: And the “synergy with butyrate in AvBD9 mRNA expression” value (AvBD9 mRNA expression; indicated concentrations in combination with 2 mM butyrate, 24 h (FIG. 4))?
Answer: concentration-dependent increase

Question: What about the “synergy in AvBD9 induction with HDACi” value (AvBD9 mRNA expression; with any of three HDACi (vorinostat, butyrate, mocetinostat), 24 h (FIG. 7, Panel A)) of the same molecule?
Answer: dramatic synergy

Question: And the “AvBD10 induction, combination with butyrate” value (AvBD10)?
Answer: synergistically induced, albeit at lower magnitudes

Question: And the “synergy in AvBD9 induction with butyrate” value (AvBD9)?
Answer: drastic synergy
